Laboratory results taken from patent US20180153194A1, “AGENT HAVING ANTI-ICE NUCLEATION ACTIVITY” (THE SCHOOL CORPORATION KANSAI UNIVERSITY, priority 2015, published 2018).

Experiments:
[1] = Anti-ice nucleation active performance (supercooling acceleration), droplet-freezing method of Vali, silver iodide; format: physicochemical; conditions: for anti-ice nucleation activity (in words): 2.0 mM aqueous solution; for improvement in anti-ice nucleation activity level of tri-peptide compared to the mono-amino acid: 2.0 mM
Experimental: Nine hundred microliters of an aqueous solution was prepared by dissolving silver iodide in ultra-pure water to a silver iodide concentration of 1.0 mg/mL.
(§1) A blank sample was prepared by mixing 100 μL of ultra-pure water with 900 μL of the aqueous solution in which silver iodide was dissolved.
(§2) The anti-ice nucleation active performance (supercooling acceleration performance) was measured by using the droplet-freezing method of Vali. More specifically, in accordance with the droplet-freezing method of Vali (FIG. 1), an aluminum film was placed on the copper plate of a cold plate chiller (CoolAce CCA-1000, Tokyo Rikakikai Co., Ltd.), and the film was coated with a silicone oil suspension diluted with acetone and chloroform (a solution of acetone:chloroform=1:2). Then, each sample for evaluation or the blank sample was dropped (10 μL each) on 30 points of the surface, the temperature was decreased at a rate of 1.0° C./min, and the temperature at which 50% of the 30 droplets were frozen was considered to be T50.
The droplet-freezing temperature of each sample was referred to as SampleT50, and the droplet-freezing temperature of the blank sample was referred to as BlankT50. Then, the anti-ice nucleation activity level ΔT50 (° C.) was calculated by the following formula:
ΔT50 (° C.)=BlankT50−SampleT50 Formula: […]
(§3) The results are average values of the results of the test performed three times.
as §1
Each sample for evaluation was prepared by mixing 100 μL of the aqueous solutions of Examples 2 and 11 and Comparative Example 10 with 900 μL of the aqueous solution in which silver iodide was dissolved. A blank sample was prepared by mixing 100 μL of ultra-pure water with 900 μL of the aqueous solution in which silver iodide was dissolved.
as §3

[2] = State of tofu after freezing and thawing, and breaking load of tofu; conditions: frozen in liquid nitrogen
Experimental: Silken tofu (1.5 mm (length)×1.5 mm (width)×1.5 mm (height)) was immersed in the solution of Comparative Example 9 (water, blank) or Example 1 (tyrosine dimer) overnight. Thereafter, the tofu was taken out of the solution, the moisture was wiped off, and then the tofu was wrapped with wrap (plastic wrap). The tofu wrapped in plastic wrap was immersed in liquid nitrogen to be quickly frozen. The frozen tofu was then slowly thawed (warmed at 25° C.) or quickly thawed (warmed at 60° C.). […] The breaking load (N) of tofu was measured by a creep meter (RE2-33005C, Yamaden, Co., Ltd.).

Cooling curve of tofu = conditions: for anti-ice nucleation activity towards tofu (in words): cooling curve compared to Comparative Example 9; for Freezing onset temperature / Temperature at which tofu was completely frozen / Time taken for tofu to be completely frozen: tofu immersed overnight, cooled in freezer at −20° C.
Experimental: Silken tofu (1.5 mm (length)×1.5 mm (width)×1.5 mm (height)) that was immersed overnight in the solution of Comparative Example 9 (blank), Example 1 (tyrosine dimer), or Example 2 (tyrosine trimer) was cooled.
A thermocouple thermometer (Horiba) was inserted in tofu, and the temperature was measured every 20 seconds in a freezer at −20° C. A cooling curve was then obtained based on the relationship between the temperature (° C.) and the cooling time (in seconds) (FIG. 9). Table 5 below and FIG. 9 show the temperature at which the tofu began to freeze (freezing onset temperature), the temperature at which the tofu was completely frozen, and the time taken for the tofu to be completely frozen.

Pseudomonas fluorescens = experiment: Effect on different kind of ice nucleation active substance, droplet-freezing method of Vali; format: physicochemical; conditions: towards Pseudomonas fluorescens in place of silver iodide; average of three tests
Experimental: as §2, with “Then, each sample for evaluation or the blank sample was dropped (10 μL each) on 30 points of the surface, the temperature was decreased at a rate of 1.0° C./min, and the temperature at which 50% of the 30 droplets were frozen was considered to be T50.” left out
The droplet-freezing temperature of each sample was referred to as SampleT50, and the droplet-freezing temperature of the blank sample was referred to as BlankT50. Then, the anti-ice nucleation activity level ΔT50 (° C.) was calculated by the following formula: […]
A sample for evaluation of Example 1 was prepared in a manner similar to that described in Test Example 1, except that Pseudomonas fluorescens, which is the Pseudomonas bacterium, was used in place of silver iodide, which is an ice nucleation active substance. The anti-ice nucleation active performance (supercooling acceleration performance) was measured by using a test method similar to that described in Test Example 1. […]

[3] = Anti-ice nucleation activity test with respect to biological material (beef liver); conditions: 10 μL, final concentration 0.2 mM, dropped on beef liver; blank ultra-pure water
Experimental: Ten microliters of an aqueous solution in which the aqueous solution of the anti-ice nucleation activator of Example 2 (tyrosine trimer) was diluted 10-fold with ultra-pure water (final concentration: 0.2 mM) was added dropwise on a beef liver (1 mm (length)×1 mm (width)×1 mm (height)). As a blank sample, ultra-pure water was used.
The anti-ice nucleation active performance (supercooling acceleration performance) was measured by using a method similar to the droplet-freezing method of Vali described in Test Example 1. The results are average values of the results of the test performed three times.

[4] = ΔT50 = BlankT50 − SampleT50, 2.0 mM aqueous solution (100 μL) mixed with 900 μL silver iodide 1.0 mg/mL, average of three tests

Compound: N[C@@H](Cc1ccc(O)cc1)C(=O)O [Comparative Example 1, tyrosine, reference compound]
- anti-ice nucleation activity (in words) ([1]; silver iodide): no anti-ice nucleation activity
- Anti-ice nucleation activity level [1, 4]: 0.3 °C

Compound: N[C@@H](Cc1ccccc1)C(=O)O [Comparative Example 4, phenylalanine, reference compound]
- Anti-ice nucleation activity level [1, 4]: 0.5 °C

Compound: N[C@@H](CO)C(=O)O [Comparative Example 6, serine, reference compound]
- Anti-ice nucleation activity level [1, 4]: 0.1 °C

Compound: C[C@@H](O)[C@H](N)C(=O)O [Comparative Example 8, threonine, reference compound]
- Anti-ice nucleation activity level [1, 4]: 0.1 °C

Compound: Phe-Phe-Phe [Comparative Example 3, reference compound]
- improvement in anti-ice nucleation activity level of tri-peptide compared to the mono-amino acid ([1]; silver iodide): no improvement in the anti-ice nucleation activity level
- Anti-ice nucleation activity level [1, 4]: 0.3 °C

Compound: Ser-Ser-Ser [Comparative Example 5, reference compound]
- improvement in anti-ice nucleation activity level of tri-peptide compared to the mono-amino acid ([1]; silver iodide): no improvement in the anti-ice nucleation activity level
- Anti-ice nucleation activity level [1, 4]: 0.4 °C

Compound: Thr-Thr-Thr [Comparative Example 7, reference compound]
- improvement in anti-ice nucleation activity level of tri-peptide compared to the mono-amino acid ([1]; silver iodide): no improvement in the anti-ice nucleation activity level
- Anti-ice nucleation activity level [1, 4]: −0.3 °C

Compound: Tyr-Tyr [Example 1]
- Anti-ice nucleation activity level [1, 4]: 2.6 °C
- cavities in the tofu after thawing ([2]; slow or quick thawing): no cavities were formed
- breaking load of the tofu ([2]; tofu immersed overnight, slow thawing (25° C.) and quick thawing (60° C.), compared to Comparative Example 9 (water)): low
- anti-ice nucleation activity towards tofu (in words) (Cooling curve of tofu): exert anti-ice nucleation activity towards tofu
- Freezing onset temperature (Cooling curve of tofu): −1.2° ° C.
- Temperature at which tofu was completely frozen (Cooling curve of tofu): −6.8° ° C.
- Time taken for tofu to be completely frozen (Cooling curve of tofu): 1120 s

Compound: Tyr-Tyr-Tyr [Example 2]
- anti-ice nucleation activity (in words) ([1]; silver iodide): highest anti-ice nucleation activity level
- improvement in anti-ice nucleation activity level of tri-peptide compared to the mono-amino acid ([1]; silver iodide): significantly improved anti-ice nucleation activity level
- anti-ice nucleation active performance (in words) ([1]; all concentration levels within 0.1 to 10.0 mM, silver iodide): exhibited anti-ice nucleation active performance
- Anti-ice nucleation activity level [1, 4]: 10.1 °C
- anti-ice nucleation active performance (Pseudomonas fluorescens): 1.9 °C
- Anti-ice nucleation activity level [3]: 0.6 °C
- anti-ice nucleation activity towards tofu (in words) (Cooling curve of tofu): exert anti-ice nucleation activity towards tofu
- Freezing onset temperature (Cooling curve of tofu): −0.8° ° C.
- Temperature at which tofu was completely frozen (Cooling curve of tofu): −7.8° ° C.
- Time taken for tofu to be completely frozen (Cooling curve of tofu): 1080 s

Compound: Tyr-Tyr-Tyr [Example 5]
- Anti-ice nucleation activity level ([1]; tyrosine trimer concentration 0.1 mM, silver iodide 1.0 mg/mL): 2.3 °C

Compound: Tyr-Tyr-Tyr [Example 6]
- Anti-ice nucleation activity level ([1]; tyrosine trimer concentration 0.2 mM, silver iodide 1.0 mg/mL): 3.7 °C

Compound: Tyr-Tyr-Tyr [Example 7]
- Anti-ice nucleation activity level ([1]; tyrosine trimer concentration 0.5 mM, silver iodide 1.0 mg/mL): 1.8 °C

Compound: Tyr-Tyr-Tyr [Example 8]
- Anti-ice nucleation activity level ([1]; tyrosine trimer concentration 1.0 mM, silver iodide 1.0 mg/mL): 5.7 °C

Compound: Tyr-Tyr-Tyr [Example 9]
- Anti-ice nucleation activity level ([1]; tyrosine trimer concentration 5.0 mM, silver iodide 1.0 mg/mL): 9.2 °C

Compound: Tyr-Tyr-Tyr [Example 10]
- Anti-ice nucleation activity level ([1]; tyrosine trimer concentration 10.0 mM, silver iodide 1.0 mg/mL): 9.2 °C

Compound: Tyr-Tyr-Tyr-Tyr (YYYY; printed: Tyr-Tyr-Tyr-Tyr) [Example 3]
- Anti-ice nucleation activity level [1, 4]: 1.8 °C

Compound: Tyr-Tyr-Tyr-Tyr-Tyr (YYYYY; printed: Tyr-Tyr-Tyr-Tyr-Tyr) [Example 4]
- Anti-ice nucleation activity level [1, 4]: 1.7 °C
